Consider 15 compounds from ChEMBL document CHEMBL5291721, “A preclinical secondary pharmacology resource illuminates target-adverse drug reaction associations of marketed drugs” (Nat Commun, 2023).

Usually AC50 stands for the concentration giving half of the maximal activity seen.

SMILES strings stand for the structures.

In test [1] the target is Gamma-aminobutyric acid receptor subunit alpha-1 (Rattus norvegicus, UniProt P62813). In kind it is functional.
Test [2] has as its target Beta-2 adrenergic receptor (Homo sapiens, UniProt P07550).
The target of test [3] is T1, D(1A) dopamine receptor (Homo sapiens, UniProt P21728). In kind it is functional, cell-based.
For test [4], the target named is Voltage-dependent L-type calcium channel subunit alpha-1C (Rattus norvegicus, UniProt P22002). In kind it is functional.
The next test deals with T2, Progesterone receptor (Homo sapiens, UniProt P06401).
T2 sequence (P06401 whole entry): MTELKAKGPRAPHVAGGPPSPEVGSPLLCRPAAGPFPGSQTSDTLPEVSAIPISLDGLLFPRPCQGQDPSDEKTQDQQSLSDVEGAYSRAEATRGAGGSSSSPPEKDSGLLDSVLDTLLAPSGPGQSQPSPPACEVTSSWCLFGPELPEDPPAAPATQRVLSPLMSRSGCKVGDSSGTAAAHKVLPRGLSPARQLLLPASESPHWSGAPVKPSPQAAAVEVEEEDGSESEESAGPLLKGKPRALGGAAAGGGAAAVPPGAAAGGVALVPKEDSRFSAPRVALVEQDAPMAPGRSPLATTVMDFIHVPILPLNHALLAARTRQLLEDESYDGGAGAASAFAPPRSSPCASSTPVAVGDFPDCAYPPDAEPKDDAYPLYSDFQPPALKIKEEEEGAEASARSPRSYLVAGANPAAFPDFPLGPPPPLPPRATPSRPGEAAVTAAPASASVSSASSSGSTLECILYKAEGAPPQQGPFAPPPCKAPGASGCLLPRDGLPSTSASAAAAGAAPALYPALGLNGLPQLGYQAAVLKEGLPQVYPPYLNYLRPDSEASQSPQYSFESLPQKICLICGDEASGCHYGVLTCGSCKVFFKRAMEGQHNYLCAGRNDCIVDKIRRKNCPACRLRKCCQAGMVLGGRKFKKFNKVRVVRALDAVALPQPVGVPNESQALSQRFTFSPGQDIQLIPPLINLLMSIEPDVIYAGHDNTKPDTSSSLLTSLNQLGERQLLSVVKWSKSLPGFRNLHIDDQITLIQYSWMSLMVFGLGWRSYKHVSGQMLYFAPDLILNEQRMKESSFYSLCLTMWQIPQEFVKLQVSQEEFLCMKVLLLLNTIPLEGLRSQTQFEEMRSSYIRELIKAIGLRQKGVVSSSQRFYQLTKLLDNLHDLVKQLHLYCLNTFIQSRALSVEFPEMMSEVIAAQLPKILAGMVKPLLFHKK
It is filed as functional.

For test [5], the target named is Delta-type opioid receptor (Homo sapiens, UniProt P41143).
For test [6], the target named is T3, Alpha-2A adrenergic receptor (Homo sapiens, UniProt P08913).
T3 sequence (P08913 whole entry): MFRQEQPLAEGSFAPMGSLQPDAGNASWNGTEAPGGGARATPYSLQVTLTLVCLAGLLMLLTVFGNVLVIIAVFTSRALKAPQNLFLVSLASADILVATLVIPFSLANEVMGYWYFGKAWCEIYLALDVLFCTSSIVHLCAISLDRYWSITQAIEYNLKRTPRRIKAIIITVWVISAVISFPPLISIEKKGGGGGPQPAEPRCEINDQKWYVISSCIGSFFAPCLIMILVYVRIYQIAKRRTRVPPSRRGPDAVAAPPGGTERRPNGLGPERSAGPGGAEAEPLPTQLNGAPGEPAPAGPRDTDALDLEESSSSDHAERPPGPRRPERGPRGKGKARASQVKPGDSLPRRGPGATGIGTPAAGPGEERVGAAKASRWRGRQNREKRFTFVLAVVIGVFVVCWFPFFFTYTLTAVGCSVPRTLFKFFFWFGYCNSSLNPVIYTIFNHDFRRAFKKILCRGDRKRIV
In kind it is functional, cell-based.

Test [7] concerns the target 3',5'-cyclic-AMP phosphodiesterase 4D (Homo sapiens, UniProt Q08499). It is filed as functional.
Test [8] addresses T4, 5-hydroxytryptamine receptor 1A (Homo sapiens, UniProt P08908).
T4 sequence (P08908 whole entry): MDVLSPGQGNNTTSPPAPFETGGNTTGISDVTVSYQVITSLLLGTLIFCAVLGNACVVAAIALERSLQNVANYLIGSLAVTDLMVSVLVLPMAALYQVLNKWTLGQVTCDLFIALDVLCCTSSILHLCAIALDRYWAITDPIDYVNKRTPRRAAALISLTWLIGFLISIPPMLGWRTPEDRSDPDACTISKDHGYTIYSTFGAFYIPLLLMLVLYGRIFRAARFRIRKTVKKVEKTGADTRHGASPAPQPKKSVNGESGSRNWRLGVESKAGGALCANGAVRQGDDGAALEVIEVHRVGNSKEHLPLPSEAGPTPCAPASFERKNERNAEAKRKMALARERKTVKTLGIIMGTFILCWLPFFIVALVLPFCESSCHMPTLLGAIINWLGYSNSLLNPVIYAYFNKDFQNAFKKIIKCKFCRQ
In kind it is functional, cell-based.

For test [9], the target named is T5, Muscarinic acetylcholine receptor M2 (Homo sapiens, UniProt P08172).
T5 sequence (P08172 whole entry): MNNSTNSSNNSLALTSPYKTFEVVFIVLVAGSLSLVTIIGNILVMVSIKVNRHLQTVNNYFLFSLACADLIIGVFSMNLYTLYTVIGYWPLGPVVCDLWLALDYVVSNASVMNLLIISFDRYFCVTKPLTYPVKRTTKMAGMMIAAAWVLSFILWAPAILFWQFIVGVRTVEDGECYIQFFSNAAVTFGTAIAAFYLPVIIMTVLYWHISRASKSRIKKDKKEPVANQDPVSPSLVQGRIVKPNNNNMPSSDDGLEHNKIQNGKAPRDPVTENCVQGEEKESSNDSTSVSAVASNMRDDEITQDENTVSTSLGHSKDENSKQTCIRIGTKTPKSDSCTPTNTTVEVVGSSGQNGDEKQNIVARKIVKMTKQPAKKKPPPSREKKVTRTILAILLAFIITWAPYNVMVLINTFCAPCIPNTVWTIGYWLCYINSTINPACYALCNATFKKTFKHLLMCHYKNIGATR
In kind it is functional, cell-based.

The target in test [10] is T1, D(1A) dopamine receptor.
Also: assay procedure not described here.

Sequence of 3',5'-cyclic-AMP phosphodiesterase 4D (Q08499 whole entry): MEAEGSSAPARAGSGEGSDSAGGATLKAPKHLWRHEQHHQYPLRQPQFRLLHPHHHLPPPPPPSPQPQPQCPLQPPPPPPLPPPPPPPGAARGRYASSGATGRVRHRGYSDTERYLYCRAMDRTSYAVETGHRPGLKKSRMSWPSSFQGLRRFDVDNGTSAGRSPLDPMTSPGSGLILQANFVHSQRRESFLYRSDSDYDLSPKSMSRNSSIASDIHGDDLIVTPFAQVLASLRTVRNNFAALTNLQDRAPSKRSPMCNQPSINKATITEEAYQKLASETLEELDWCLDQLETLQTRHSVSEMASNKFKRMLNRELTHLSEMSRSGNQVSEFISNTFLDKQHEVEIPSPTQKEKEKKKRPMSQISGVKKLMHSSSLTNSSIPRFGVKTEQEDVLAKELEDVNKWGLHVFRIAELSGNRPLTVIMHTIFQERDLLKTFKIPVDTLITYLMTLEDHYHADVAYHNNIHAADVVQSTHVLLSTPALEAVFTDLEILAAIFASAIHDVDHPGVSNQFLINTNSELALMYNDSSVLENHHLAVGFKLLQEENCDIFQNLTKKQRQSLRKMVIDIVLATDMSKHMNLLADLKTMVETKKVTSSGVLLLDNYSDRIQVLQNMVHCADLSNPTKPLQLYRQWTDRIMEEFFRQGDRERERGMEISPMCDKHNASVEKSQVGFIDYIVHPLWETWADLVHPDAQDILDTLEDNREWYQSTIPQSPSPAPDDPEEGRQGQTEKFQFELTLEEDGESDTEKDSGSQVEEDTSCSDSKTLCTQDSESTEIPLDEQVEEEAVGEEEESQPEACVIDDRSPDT
T1 sequence (P21728 whole entry): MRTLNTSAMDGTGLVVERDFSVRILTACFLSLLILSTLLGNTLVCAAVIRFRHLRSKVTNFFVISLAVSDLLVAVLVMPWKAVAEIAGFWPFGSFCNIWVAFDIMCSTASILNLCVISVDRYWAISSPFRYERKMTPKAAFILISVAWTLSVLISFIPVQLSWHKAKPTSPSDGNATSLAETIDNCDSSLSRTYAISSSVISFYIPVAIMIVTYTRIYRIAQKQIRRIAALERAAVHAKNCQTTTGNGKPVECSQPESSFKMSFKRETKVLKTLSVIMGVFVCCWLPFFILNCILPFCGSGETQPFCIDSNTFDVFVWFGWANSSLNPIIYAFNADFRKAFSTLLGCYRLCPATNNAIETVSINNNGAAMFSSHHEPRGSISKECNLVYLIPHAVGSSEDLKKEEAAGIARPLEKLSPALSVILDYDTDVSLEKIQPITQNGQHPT
Sequence of Delta-type opioid receptor (P41143 whole entry): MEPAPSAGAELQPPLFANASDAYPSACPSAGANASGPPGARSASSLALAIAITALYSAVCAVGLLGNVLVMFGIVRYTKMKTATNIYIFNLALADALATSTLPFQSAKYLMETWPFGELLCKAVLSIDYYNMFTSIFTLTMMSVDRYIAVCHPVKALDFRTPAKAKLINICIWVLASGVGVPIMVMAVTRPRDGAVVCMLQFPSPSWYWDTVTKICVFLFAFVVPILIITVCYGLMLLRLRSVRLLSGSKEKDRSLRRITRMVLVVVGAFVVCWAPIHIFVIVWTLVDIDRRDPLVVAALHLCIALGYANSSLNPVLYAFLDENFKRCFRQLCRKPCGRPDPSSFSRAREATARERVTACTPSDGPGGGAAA
Sequence of Voltage-dependent L-type calcium channel subunit alpha-1C (P22002 whole entry): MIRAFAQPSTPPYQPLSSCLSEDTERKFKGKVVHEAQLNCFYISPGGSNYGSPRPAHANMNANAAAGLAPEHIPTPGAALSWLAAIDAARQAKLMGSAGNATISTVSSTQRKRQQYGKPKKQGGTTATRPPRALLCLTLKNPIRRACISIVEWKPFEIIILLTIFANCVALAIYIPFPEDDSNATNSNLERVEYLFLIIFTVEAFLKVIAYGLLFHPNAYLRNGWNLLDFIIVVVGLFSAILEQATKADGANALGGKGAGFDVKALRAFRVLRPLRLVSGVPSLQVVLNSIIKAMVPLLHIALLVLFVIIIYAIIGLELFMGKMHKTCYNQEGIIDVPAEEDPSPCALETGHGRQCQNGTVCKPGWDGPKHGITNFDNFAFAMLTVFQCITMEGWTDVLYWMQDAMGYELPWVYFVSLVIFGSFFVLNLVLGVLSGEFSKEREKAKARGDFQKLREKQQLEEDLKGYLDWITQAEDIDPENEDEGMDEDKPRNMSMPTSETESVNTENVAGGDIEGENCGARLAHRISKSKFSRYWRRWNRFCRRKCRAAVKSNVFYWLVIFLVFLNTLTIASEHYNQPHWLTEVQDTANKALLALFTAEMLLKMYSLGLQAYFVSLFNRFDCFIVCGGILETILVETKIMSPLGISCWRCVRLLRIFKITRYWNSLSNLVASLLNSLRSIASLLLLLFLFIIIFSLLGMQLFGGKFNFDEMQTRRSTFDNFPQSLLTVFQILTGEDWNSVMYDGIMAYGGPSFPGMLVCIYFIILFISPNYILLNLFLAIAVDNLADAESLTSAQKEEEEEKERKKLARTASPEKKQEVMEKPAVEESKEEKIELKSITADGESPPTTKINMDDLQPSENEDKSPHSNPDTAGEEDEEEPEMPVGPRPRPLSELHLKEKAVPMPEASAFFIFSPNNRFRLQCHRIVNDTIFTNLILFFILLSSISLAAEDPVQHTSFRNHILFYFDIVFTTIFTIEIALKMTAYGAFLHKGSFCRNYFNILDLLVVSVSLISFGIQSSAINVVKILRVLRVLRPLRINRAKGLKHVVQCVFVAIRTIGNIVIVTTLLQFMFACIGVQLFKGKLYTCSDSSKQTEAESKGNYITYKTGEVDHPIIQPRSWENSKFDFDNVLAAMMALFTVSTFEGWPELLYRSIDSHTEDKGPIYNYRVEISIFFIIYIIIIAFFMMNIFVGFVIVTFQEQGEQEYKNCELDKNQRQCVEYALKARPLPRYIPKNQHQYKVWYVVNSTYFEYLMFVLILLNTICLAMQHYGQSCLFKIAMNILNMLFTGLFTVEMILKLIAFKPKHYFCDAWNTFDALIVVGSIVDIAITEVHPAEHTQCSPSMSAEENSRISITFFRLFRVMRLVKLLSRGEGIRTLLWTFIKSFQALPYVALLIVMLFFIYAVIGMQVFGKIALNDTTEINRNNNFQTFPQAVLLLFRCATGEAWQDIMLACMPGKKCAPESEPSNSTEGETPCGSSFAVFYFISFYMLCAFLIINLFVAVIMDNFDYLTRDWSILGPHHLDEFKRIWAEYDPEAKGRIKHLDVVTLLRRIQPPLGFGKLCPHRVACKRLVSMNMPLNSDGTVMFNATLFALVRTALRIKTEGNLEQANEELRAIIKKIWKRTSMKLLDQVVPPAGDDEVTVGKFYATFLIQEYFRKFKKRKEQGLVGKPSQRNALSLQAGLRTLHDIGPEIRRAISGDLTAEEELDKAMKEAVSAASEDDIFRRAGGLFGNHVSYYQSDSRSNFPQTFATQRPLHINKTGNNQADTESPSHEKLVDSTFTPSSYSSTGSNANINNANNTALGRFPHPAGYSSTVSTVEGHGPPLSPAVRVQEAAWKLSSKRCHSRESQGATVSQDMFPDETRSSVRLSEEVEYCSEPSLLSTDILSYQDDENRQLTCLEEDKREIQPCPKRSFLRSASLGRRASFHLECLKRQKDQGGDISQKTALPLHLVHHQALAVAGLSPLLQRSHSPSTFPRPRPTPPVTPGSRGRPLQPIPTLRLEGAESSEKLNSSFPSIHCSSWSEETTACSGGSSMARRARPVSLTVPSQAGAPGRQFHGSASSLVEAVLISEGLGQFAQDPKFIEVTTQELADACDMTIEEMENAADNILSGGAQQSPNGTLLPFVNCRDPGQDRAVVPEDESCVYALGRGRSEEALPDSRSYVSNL
Sequence of Beta-2 adrenergic receptor (P07550 whole entry): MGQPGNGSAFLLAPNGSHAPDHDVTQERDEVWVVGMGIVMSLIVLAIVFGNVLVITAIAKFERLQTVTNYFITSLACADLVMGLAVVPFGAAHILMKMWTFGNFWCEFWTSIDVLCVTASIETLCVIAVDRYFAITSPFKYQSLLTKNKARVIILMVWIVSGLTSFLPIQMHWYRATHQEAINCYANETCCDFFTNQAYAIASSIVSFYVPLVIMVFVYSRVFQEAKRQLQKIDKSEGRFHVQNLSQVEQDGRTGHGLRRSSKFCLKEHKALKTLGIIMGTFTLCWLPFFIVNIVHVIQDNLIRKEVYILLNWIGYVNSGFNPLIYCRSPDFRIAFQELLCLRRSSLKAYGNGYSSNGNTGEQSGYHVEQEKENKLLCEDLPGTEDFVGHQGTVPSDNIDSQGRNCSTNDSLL
Sequence of Gamma-aminobutyric acid receptor subunit alpha-1 (P62813 whole entry): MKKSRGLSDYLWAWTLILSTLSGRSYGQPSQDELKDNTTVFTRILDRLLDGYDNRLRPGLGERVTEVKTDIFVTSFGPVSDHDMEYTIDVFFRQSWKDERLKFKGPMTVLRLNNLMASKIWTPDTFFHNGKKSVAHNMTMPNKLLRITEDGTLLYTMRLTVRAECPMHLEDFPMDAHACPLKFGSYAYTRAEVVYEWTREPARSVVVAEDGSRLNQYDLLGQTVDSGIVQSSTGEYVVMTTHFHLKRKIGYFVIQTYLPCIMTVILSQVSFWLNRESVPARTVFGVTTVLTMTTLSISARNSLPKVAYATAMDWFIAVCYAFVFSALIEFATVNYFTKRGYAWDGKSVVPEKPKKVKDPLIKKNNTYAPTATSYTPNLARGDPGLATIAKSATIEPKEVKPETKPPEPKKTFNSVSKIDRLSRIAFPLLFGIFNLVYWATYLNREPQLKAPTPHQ

For `C[N+](C)(C)CCOP(=O)([O-])OC[C@H](O)CO`, the AC50 (in [1]; in [2]; on D(1A) dopamine receptor [3]; in [4]; at Progesterone receptor; in test [5]) was over 30 µM each time. Further, the AC50 in test [6], in test [7], in test [8] and in test [9] was over 30 µM each time.

With `CN(C)C/C=C/C(=O)Nc1cc2c(Nc3ccc(F)c(Cl)c3)ncnc2cc1O[C@H]1CCOC1` [AFATINIB], the AC50 (in [1]; at D(1A) dopamine receptor [3]; on Progesterone receptor; in test [5]; in test [6]; in [7]) was over 30 µM in each case. Further, the results for the AC50 in test [8] and in [9] were over 30 µM and 23 µM, respectively.

Regarding `CCC1(c2ccc(N)cc2)CCC(=O)NC1=O` (configuration not stated) [AMINOGLUTETHIMIDE], the AC50 in test [1] was over 30 µM; on D(1A) dopamine receptor [3] it was over 30 µM; at Progesterone receptor, over 30 µM; in test [5] it was over 30 µM; in test [6], over 30 µM; in [7], 9.5 µM. Besides, in test [9], the AC50 was over 30 µM.

Take `CC1=C(C(=O)OC(C)C)C(c2cccc([N+](=O)[O-])c2)C(C(=O)OC2CN(C(c3ccccc3)c3ccccc3)C2)=C(N)N1` (configuration not stated) [AZELNIDIPINE]: the AC50 in test [1] was over 30 µM; in test [2] it was over 30 µM; at D(1A) dopamine receptor [3], over 30 µM; in test [4], 0.092 µM; at Progesterone receptor, over 3 µM; in [5], over 30 µM. The AC50 in [6] is over 30 µM; in [7] it was 6.6 µM; in test [9], over 30 µM.

For `CC(Cc1cccc(C(F)(F)F)c1)NCCOC(=O)c1ccccc1` (configuration not stated) [BENFLUOREX], the AC50 (on D(1A) dopamine receptor [3]; on Progesterone receptor; in test [5]; in [6]; in [9]) was over 30 µM each time.

The compound `C[C@H](CCC(=O)O)[C@H]1CC[C@H]2[C@@H]3[C@H](O)C[C@@H]4C[C@H](O)CC[C@]4(C)[C@H]3C[C@H](O)[C@]12C` [CHOLIC ACID] came in with an AC50 on D(1A) dopamine receptor [10] of over 30 µM.

Consider `CN[C@]1(c2ccccc2Cl)CCCCC1=O` [ESKETAMINE], for which the AC50 (in test [1]; in test [2]; on D(1A) dopamine receptor [3]; in test [4]; on Progesterone receptor; in test [5]) was over 30 µM in each case. The half-maximal activity concentration (AC50) in [6], in [7] and in [9] was over 30 µM throughout.

Turning to `CCOC(=O)C1=C(C)NC(C)=C(C(=O)OCC)C1c1ccccc1/C=C/C(=O)OC(C)(C)C` [LACIDIPINE], the AC50 in test [1] is over 30 µM; in test [2], over 30 µM; at D(1A) dopamine receptor [3], over 30 µM; in test [4], 0.32 µM; at Progesterone receptor, 29 µM; in test [5], over 30 µM. Moreover, the half-maximal activity concentration (AC50) in test [6] is over 30 µM; in test [7] it was 12 µM; in test [9] it was over 30 µM.

With `COC(=O)C1=C(C)NC(C)=C(C(=O)OCCN2CCN(C(c3ccccc3)c3ccccc3)CC2)C1c1cccc([N+](=O)[O-])c1` (configuration not stated) [MANIDIPINE 6300], the concentration at half-maximal activity (AC50) in test [1] is over 30 µM; in test [2], over 30 µM; on D(1A) dopamine receptor [3], over 30 µM; in test [4], 0.3 µM; in test [5], over 30 µM; in test [6], over 30 µM. The AC50 in [7], in test [8] and in [9] was over 30 µM throughout.

In the case of `OC[C@H]1O[C@@H](n2cnc3c2NC=NC[C@H]3O)C[C@@H]1O` [PENTOSTATIN], the AC50 (in [1]; at D(1A) dopamine receptor [3]; at Progesterone receptor; in [5]; in [6]; in [7]) was over 30 µM in each case. For the same compound, the AC50 in test [8] and in [9] was over 30 µM in each case.

On to `Cc1cccc(C)c1NC(=O)CC12CCCN1CCC2` [PILSICAINIDE], for which the AC50 (in test [1]; in test [2]; on D(1A) dopamine receptor [3]; in test [4]; at Progesterone receptor; in test [5]) was over 30 µM in each case. In addition, the AC50 in test [6], in test [7] and in test [9] was over 30 µM each time.

With `CC(C)c1cccc(C(C)C)c1O` [PROPOFOL], the AC50 (at D(1A) dopamine receptor [3]; on Progesterone receptor; in [5]; in test [6]; in test [7]; in [8]) was over 30 µM each time. The compound also came in with an AC50 in test [9] of over 30 µM.

For `CCCN1CC(NS(=O)(=O)N(CC)CC)CC2Cc3c(O)cccc3CC21` (configuration not stated) [QUINAGOLIDE], the AC50 in test [1] is over 30 µM; in [2], over 30 µM; on D(1A) dopamine receptor [3], 0.15 µM; in [4] it was over 30 µM; on Progesterone receptor, over 30 µM; in test [5] it was over 30 µM. The concentration at half-maximal activity (AC50) in [6], in test [7] and in test [9] was over 30 µM throughout.

Regarding `O=C1OC(OC(=O)c2cccnc2Nc2cccc(C(F)(F)F)c2)c2ccccc21` (configuration not stated) [TALNIFLUMATE], the AC50 is over 30 µM in [1]; over 30 µM at D(1A) dopamine receptor [3]; over 30 µM on Progesterone receptor; over 30 µM in test [5]; over 30 µM in test [6]; 5.2 µM in test [7]. The half-maximal activity concentration (AC50) in test [8] and in test [9] was over 30 µM each time.

In the case of `CCOC(=O)c1c(CSc2ccccc2)n(C)c2cc(Br)c(O)c(CN(C)C)c12` [UMIFENOVIR], the AC50 (in test [1]; in test [2]; at D(1A) dopamine receptor [3]; in test [4]; at Progesterone receptor; in test [5]) was over 30 µM throughout. Further, the AC50 in test [6] is over 30 µM; in test [7], 5.6 µM; in test [9] it was 28 µM.
